For orientation: IC50 means the point on the concentration scale where inhibition reaches its midpoint.

The results in this text go back to paper PMC3480357, “Fragment-Hopping-Based Discovery of a Novel Chemical Series of Proto-Oncogene PIM-1 Kinase Inhibitors” (PLoS ONE, 2012).

The target in one test is PIM-2 (Homo sapiens, UniProt Q9P1W9). Briefly: PIM-2 kinase ADP Hunter Plus assay. The format is biochemical. Particulars: 100 µM ATP.
For a further test, the target named is PIM-3 (Homo sapiens, UniProt Q86V86). The experiment in a line: PIM-3 kinase ADP Hunter Plus assay. The note with it: 100 µM ATP, Figure 1. The format is biochemical. As to the method:
Kinase activity was measured with the commercial ADP Hunter™ Plus assay (DiscoveRx Ref. #33-016), a homogeneous assay measuring ADP accumulation, as a universal product of kinase activity. The assay was conducted following the manufacturer’s recommendations and adapting the protein and substrate concentrations for optimal conditions. The kinase assay buffer was 15 mM HEPES, pH 7.4, 20 mM NaCl, 1 mM EGTA, 0.02% Tween-20, 10 mM MgCl2 and 0.1 mg/ml BGG (bovine γ-globulin). All PIM kinase assays were performed with 100 µM PIMtide ([…]) as the peptide substrate and 100 µM ATP. The protein concentrations were 50, 350 and 500 ng/µl for PIM-1, 2 and 3, respectively. To calculate the IC50 of the ETP-compounds, serial 1∶5 dilutions were prepared and the reaction was started with the addition of ATP. The reaction was incubated for 1 h at 25°C. Reagents A and B (DiscoveRx) were sequentially added to the wells, and the plates were incubated for 30 min at 37°C. Fluorescence counts were read in a Victor instrument (Perkin Elmer) with the recommended settings (544 and 580 nm as the excitation and emission wavelengths, respectively). Values were plotted against the inhibitor concentrations and fit to a sigmoid dose–response curve using GraphPad software.

PIM-2, sequence (Q9P1W9 whole entry): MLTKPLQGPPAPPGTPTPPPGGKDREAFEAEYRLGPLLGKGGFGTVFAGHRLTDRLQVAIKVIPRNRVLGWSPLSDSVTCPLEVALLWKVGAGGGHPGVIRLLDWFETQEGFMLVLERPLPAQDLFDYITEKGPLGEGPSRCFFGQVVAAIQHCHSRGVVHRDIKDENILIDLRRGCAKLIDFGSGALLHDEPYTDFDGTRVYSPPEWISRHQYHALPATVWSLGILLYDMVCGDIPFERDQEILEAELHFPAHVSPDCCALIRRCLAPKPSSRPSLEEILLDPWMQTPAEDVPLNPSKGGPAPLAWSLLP

On to `CC(=O)c1cccc(-c2cnc3ccc(NCC4CC4)nn23)c1` [Compound 2, reference compound], for which the IC50 on PIM-2 was 0.443 µM; on PIM-3, 1 µM.
